{"source": "patent US5326774A", "about": "“Pharmaceutical preparation of antihypertensive, antianginal, antiarrhythmic and antiglaucomic action” (priority 1992, dated 1994)", "key": {"[1]": {"system": "mesaton-initiated pressor effect", "assay": "Mesaton-initiated pressor effect in anesthetized rats", "format": "in vivo, rat", "details": "for effect on mesaton pressor effect: 3 mg/kg i.v.; for suppression of mesaton pressor effect: 10 mg/kg i.v., average"}, "[2]": {"system": "strophantin-induced arrhythmia", "format": "in vivo, guinea pig"}, "β1-adrenoceptor": {"molecular_target": "T1, β1-adrenoceptor (Rattus norvegicus, UniProt P18090)", "T1 construct": "positive chronotropic and depressor effects in the anesthetized rats; from tissue; host or cells: whole living rat (heart rate response to isadrin); endogenous receptor", "T1 sequence (P18090 whole entry)": "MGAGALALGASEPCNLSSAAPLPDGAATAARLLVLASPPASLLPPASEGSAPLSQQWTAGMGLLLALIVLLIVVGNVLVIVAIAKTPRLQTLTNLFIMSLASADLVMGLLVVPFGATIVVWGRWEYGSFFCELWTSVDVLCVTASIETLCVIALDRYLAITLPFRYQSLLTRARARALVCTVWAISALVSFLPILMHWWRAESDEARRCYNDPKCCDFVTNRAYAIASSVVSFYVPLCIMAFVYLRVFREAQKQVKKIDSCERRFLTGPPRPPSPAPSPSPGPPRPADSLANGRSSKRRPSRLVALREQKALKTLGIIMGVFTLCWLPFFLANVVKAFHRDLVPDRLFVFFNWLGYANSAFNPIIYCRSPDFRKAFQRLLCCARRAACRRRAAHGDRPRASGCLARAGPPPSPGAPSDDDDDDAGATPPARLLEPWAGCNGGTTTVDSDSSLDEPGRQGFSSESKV", "assay": "Inhibition of isadrin's positive chronotropic effect, i.v., anesthetized rats", "format": "in vivo", "details": "rat, iv, read-out: Dosage inhibiting isadrin's positive chronotropism by 50% (ED50)"}, "β2-adrenoceptor": {"molecular_target": "T2, β2-adrenoceptor (Rattus norvegicus, UniProt P10608)", "T2 construct": "positive chronotropic and depressor effects in the anesthetized rats; from tissue; host or cells: whole living rat (blood pressure response to isadrin); endogenous receptor", "T2 sequence (P10608 whole entry)": "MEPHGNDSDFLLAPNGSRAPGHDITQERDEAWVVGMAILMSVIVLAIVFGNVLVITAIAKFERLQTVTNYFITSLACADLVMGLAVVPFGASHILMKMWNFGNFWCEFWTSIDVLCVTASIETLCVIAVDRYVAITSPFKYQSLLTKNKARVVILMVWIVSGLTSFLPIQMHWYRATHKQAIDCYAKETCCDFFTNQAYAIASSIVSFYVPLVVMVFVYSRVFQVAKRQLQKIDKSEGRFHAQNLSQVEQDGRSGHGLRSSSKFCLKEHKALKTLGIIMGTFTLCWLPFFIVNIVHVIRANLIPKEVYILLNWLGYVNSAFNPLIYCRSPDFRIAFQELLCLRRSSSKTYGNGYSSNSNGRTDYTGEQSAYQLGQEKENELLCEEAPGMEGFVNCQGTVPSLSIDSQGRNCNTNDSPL", "assay": "Inhibition of isadrin's depressor effect, i.v., anesthetized rats", "format": "in vivo", "details": "rat, iv, read-out: Dosage inhibiting isadrin's depressor effect by 50%, ED50"}, "[3]": {"system": "electrically induced ventricular fibrillation", "assay": "Threshold of electrically induced ventricular fibrillation in anesthetized cats", "format": "in vivo, cat"}, "in vivo": {"assay": "in vivo", "details": "mouse, iv", "source_text": "LD50 values were estimated by using the Litchfield-Wilckoxon method."}, "arterial pressure [4]": {"system": "arterial pressure", "assay": "Antihypertensive effect in rats with renovascular hypertension", "format": "in vivo, rat", "details": "same conditions", "protocol": ". In rats suffering from renovascular hypertension the compound of the invention in the dosage of 10 mg/kg (injected intramuscularly) lowered with confidence the arterial pressure (from 137±3 to 117±5 mm of Hg column) 30 minutes after being administered. The 2-week course of the administration of the compound according to the invention (10 mg/kg 1 time a day) caused the antihypertensive effect to be enhanced. By the end of the second week the arterial pressure was 110±8.6 mm Hg. […]"}, "coronary vessels": {"system": "coronary vessels", "assay": "Coronary vessel dilatation and myocardial perfusion in anesthetized rats", "format": "in vivo, rat", "details": "0.1 mg/kg i.v. (compound of the invention)", "excerpt": "The coronarodilative effect of the compound according to the invention is not associated with its β- and α-adrenoceptor blocking activity and its influence on the systemic perfusion pressure and pump function of the heart. […]"}, "[5]": {"system": "intraocular tension of intact rabbit eyes", "details": "1% solution", "procedure": "The effects of the compound according to the invention on intraocular tension and hydrodynamics of the eye was tested in 28 chinchilla rabbits with body weight of 2.5-3.5 kg.\nThe left animal eyes were control wherein using the same procedure a diluent was instilled."}, "ventricular fibrillation": {"system": "ventricular fibrillation", "assay": "Ventricular fibrillation during acute coronary occlusion and reperfusion in anesthetized dogs", "format": "in vivo, dog", "details": "for Ventricular fibrillation during acute occlusion and reperfusion: single animals"}, "arterial pressure [6]": {"system": "arterial pressure", "assay": "Arterial pressure and heart rate in conscious normotensive rats, oral", "format": "in vivo, rat", "details": "150 mg/kg"}, "vascular regions [7]": {"system": "vascular regions", "assay": "Labeled microsphere method: cardiac output distribution in normotensive rats", "format": "in vivo, rat"}, "arterial pressure [8]": {"system": "arterial pressure", "assay": "Hypotensive activity in anesthetized cats, i.v.", "format": "in vivo, cat"}, "vascular regions [9]": {"system": "vascular regions", "assay": "Labeled microsphere method in rats with renovascular hypertension", "format": "in vivo, rat"}, "intraocular tension": {"system": "intraocular tension", "assay": "Clinical test in 108 patients with glaucoma resistant to conventional therapy", "details": "human, in vivo", "protocol": "The preparation of the invention was tested on 108 patients with different cases of glaucoma resistant to the conventional antiglaucomic therapy. […] A long-term resetting for more than 1 month of intraocular tension was attained in 76% of patients."}, "[10]": {"details": "β-adrenoceptor blocking doses, normotensive rats"}}, "note": "Several values for one entry are separate records, joined by “and”; a condition that tells them apart may be missing. Equal values may be shown once. Read-outs that look alike come from different tables or passages of the source.", "data": [{"smiles": "C=CCOc1ccccc1OCC(O)CNC(C)C", "note": "(stereo not shown) [Oxprenolol, oxprenolol]", "values": [{"measurement": "effect on mesaton pressor effect", "setting": "[1]", "result": "did not change"}, {"measurement": "suppression of mesaton pressor effect", "setting": "[1]", "result": 10, "unit": "%"}, {"measurement": "Arrhythmogenic dose of strophantin as compared with control: extrasystoles", "setting": "[2]; guinea pig, in vivo", "result": "105% and 120% and 110%"}, {"measurement": "Dose of strophantin as compared with control: ventricular fibrillation", "setting": "[2]; guinea pig, in vivo", "result": "101% and 110% and 121%"}, {"measurement": "Lethal dose of strophantin as compared with control: animal death", "setting": "[2]; guinea pig, in vivo", "result": "102% and 112%"}, {"measurement": "ED50", "setting": "β1-adrenoceptor", "result": "0.26 ± 0.025", "unit": "mg/kg"}, {"measurement": "ED50", "setting": "β2-adrenoceptor", "result": "0.055 ± 0.005", "unit": "mg/kg"}, {"measurement": "threshold of electrically induced ventricular fibrillation", "setting": "[3]; 1 mg/kg", "result": "did not change"}, {"measurement": "threshold of electrically induced ventricular fibrillation", "setting": "[3]; 5 mg/kg", "result": "increased considerably this threshold"}]}, {"smiles": "CC(C)NCC(O)COc1cccc2[nH]ccc12", "note": "(stereo not shown) [Pindolol, pindolol, reference compound]", "values": [{"measurement": "LD50 at 72 h", "setting": "in vivo", "result": 29, "unit": "mg/kg"}, {"measurement": "ED50", "setting": "β1-adrenoceptor", "result": "0.025 ± 0.002", "unit": "mg/kg"}, {"measurement": "ED50", "setting": "β2-adrenoceptor", "result": "0.02 ± 0.002", "unit": "mg/kg"}, {"measurement": "threshold of electrically induced ventricular fibrillation", "setting": "[3]; dosages tested", "result": "no effect"}]}, {"smiles": "CC(C)NCC(O)COc1cccc2ccccc12", "note": "(stereo not shown) [Propranolol, propranolol]", "values": [{"measurement": "antihypertensive efficacy", "setting": "arterial pressure [4]", "result": "low efficacy"}, {"measurement": "coronary vessel dilatation / myocardial perfusion", "setting": "coronary vessels", "result": "unfavourable effect on transmural, myocardial perfusion"}, {"measurement": "Arrhythmogenic dose of strophantin as compared with control: extrasystoles", "setting": "[2]; guinea pig, in vivo", "result": "92.7% and 110%"}, {"measurement": "Dose of strophantin as compared with control: ventricular fibrillation", "setting": "[2]; guinea pig, in vivo", "result": "97.9% and 106.3% and 120%"}, {"measurement": "Average decrease of intraocular tension OD, M ± m", "setting": "[5]; 2 hours", "result": "2.6 ± 0.3 ram of Hg column"}, {"measurement": "Average decrease of intraocular tension OD, M ± m", "setting": "[5]; 4 hours", "result": "2.2 ± 0.2 ram of Hg column"}, {"measurement": "prevention of ventricular fibrillation in temporary coronary occlusion", "setting": "ventricular fibrillation; 1 mg/kg i.v.", "result": "the same effect"}, {"measurement": "Ventricular fibrillation during acute occlusion and reperfusion", "setting": "ventricular fibrillation; 10 min after injection", "result": "R"}, {"measurement": "Ventricular fibrillation during acute occlusion and reperfusion", "setting": "ventricular fibrillation; 60 min after injection", "result": "R"}, {"measurement": "arterial pressure", "setting": "arterial pressure [6]", "result": "small influence on arterial pressure"}, {"measurement": "heart rate", "setting": "arterial pressure [6]", "result": "decreased the heart rate slightly"}, {"measurement": "threshold of electrically induced ventricular fibrillation", "setting": "[3]; 5 mg/kg", "result": "increased considerably this threshold"}]}, {"smiles": "CC(CCc1ccccc1)NCC(O)c1ccc(O)c(C(N)=O)c1", "note": "(stereo not shown) [Labetalol, labetalol]", "values": [{"measurement": "nature of vasodilating effect", "setting": "vascular regions [7]; dosages to block α-adrenoceptors", "result": "slight change of vasodilating nature"}, {"measurement": "most sensible vessels", "setting": "vascular regions [7]; [10]", "result": "the vessels of skeletal muscles, testicles, spleen, kidneys and adrenals"}, {"measurement": "vasodilating properties", "setting": "vascular regions [7]; [10]", "result": "exhibits vasodilating properties"}, {"measurement": "coronary vessel dilatation / myocardial perfusion", "setting": "coronary vessels", "result": "did not lead to the dilatation of coronary vessels"}, {"measurement": "effect on mesaton pressor effect", "setting": "[1]", "result": "did not change"}, {"measurement": "suppression of mesaton pressor effect", "setting": "[1]", "result": 47, "unit": "%"}, {"measurement": "ED20", "setting": "arterial pressure [8]; Felis catus, iv, anesthetized cats, read-out: Dose resulting in lowering of arterial pressure by 20%, ED20", "result": "1 ± 0.09", "unit": "mg/kg"}, {"measurement": "minimal effective dose", "setting": "arterial pressure [8]; Felis catus, iv, cats, read-out: dosage from which arterial pressure lowered", "result": 0.1, "unit": "mg/kg"}, {"measurement": "hypotensive effect compared with compound of the invention", "setting": "arterial pressure [8]; from 0.1 mg/kg", "result": "less pronounced and prolonged effect"}, {"measurement": "Arrhythmogenic dose of strophantin as compared with control: extrasystoles", "setting": "[2]; 0.3 mg/kg i.v.", "result": 101, "unit": "%"}, {"measurement": "Dose of strophantin as compared with control: ventricular fibrillation", "setting": "[2]; 0.3 mg/kg i.v.", "result": 113, "unit": "%"}, {"measurement": "Arrhythmogenic dose of strophantin as compared with control: extrasystoles", "setting": "[2]; 1.0 mg/kg i.v.", "result": 127, "unit": "%"}, {"measurement": "Dose of strophantin as compared with control: ventricular fibrillation", "setting": "[2]; 1.0 mg/kg i.v.", "result": 131, "unit": "%"}, {"measurement": "Lethal dose of strophantin as compared with control: animal death", "setting": "[2]; 1.0 mg/kg i.v.", "result": 128, "unit": "%"}, {"measurement": "Arrhythmogenic dose of strophantin as compared with control: extrasystoles", "setting": "[2]; 3.0 mg/kg i.v.", "result": 136, "unit": "%"}, {"measurement": "Dose of strophantin as compared with control: ventricular fibrillation", "setting": "[2]; 3.0 mg/kg i.v.", "result": 137, "unit": "%"}, {"measurement": "Lethal dose of strophantin as compared with control: animal death", "setting": "[2]; 3.0 mg/kg i.v.", "result": 132, "unit": "%"}, {"measurement": "ED50", "setting": "β1-adrenoceptor", "result": "0.7 ± 0.05", "unit": "mg/kg"}, {"measurement": "ED50", "setting": "β2-adrenoceptor", "result": "3.3 ± 0.2", "unit": "mg/kg"}, {"measurement": "vasodilating properties", "setting": "vascular regions [9]", "result": "shows vasodilating properties"}, {"measurement": "threshold of electrically induced ventricular fibrillation", "setting": "[3]; 1 mg/kg", "result": "did not change"}, {"measurement": "threshold of electrically induced ventricular fibrillation", "setting": "[3]; 5 mg/kg", "result": "increased considerably this threshold"}, {"measurement": "value of increasing threshold compared with propranolol and oxprenolol", "setting": "[3]; 5 mg/kg", "result": "higher"}]}, {"smiles": "CC(C)(C)NC[C@H](O)COc1nsnc1N1CCOCC1", "note": "[thymolol]", "values": [{"measurement": "mechanism of ocular hypotensive effect", "setting": "intraocular tension", "result": "associated not only with inhibition of intraocular liquid secretion, but with improvement of its outflow"}]}]}
